{"source": "patent US5959130A", "about": "“Castor based benzoate esters” (Finetex, Inc., priority 1997, dated 1999)", "key": {"[1]": {"experiment": "viscosity readings of Red No. 21 dispersions, Table VI B", "format": "physicochemical", "details": "Brookfield LVT-D @ 12 RPM, Red No. 21 35%"}, "[2]": {"details": "in specific ratios", "text": "The aforedescribed benzoate esters have unique properties that make them particularly suited for use as emollient carriers for cosmetic ingredients. […] Parsol® is a registered trademark of Givaudan Corp. of Clifon, N.J."}, "[3]": {"experiment": "Hagman readings (particle size), titanium dioxide dispersion, Table VI A", "format": "physicochemical", "details": "TiO2 50%", "protocol": "(§1) The novel benzoate esters of the invention were tested for pigment and dye dispersing efficacy. Color pastes were prepared by dispersing dry pigment into the oil phase while hand stirring and then passing each mixture through a three roll mill six times, collecting a 16 oz. sample after each pass. The samples collected were subjected to particle size measurements."}, "[4]": {"experiment": "physical properties of benzoate esters compared to precursors, Table II", "format": "physicochemical", "details": "for S.G. (specific gravity): 25° C.; for VISCOSITY: Brookfield Viscometer, Spindle # 1, 10 rpm", "text": "Absence of odor is an important factor in consumer acceptance of cosmetic and toiletry products."}, "[5]": {"experiment": "Hagman readings (particle size), Red No. 6 Barium Lake dispersion, Table VI A", "format": "physicochemical", "details": "Red No. 6 Barium Lake 35%", "protocol": "as §1"}, "[6]": {"experiment": "sunscreen solubility: PARSOL 1789, Table IV B", "format": "physicochemical", "text": "(§2) These two sunscreens are difficult to dissolve and keep in solution for use in sunscreen formulations for optimal SPF (sun-protection factors). Higher solvency for a sunscreen ingredient is desirable as it allows higher concentrations of the sunscreen active ingredient in a formulation. This advantageously raises the SPF ratings for the formulation. The liquid organic sunscreens that are commonly used are octyl-methoxy cinnamate (OMC) and octyl salicylate (OS).\n(§3) Solubility/Solvency Tables IVA and IVB show the solubility and concentrations of the sunscreen ingredient in the novel esters of the invention compared to their precursor raw materials (non-benzoate esters)."}, "[7]": {"experiment": "Hagman readings (particle size), Red No. 21 dispersion, Table VI A", "format": "physicochemical", "details": "Red No. 21 35%", "protocol": "as §1"}, "[8]": {"experiment": "sunscreen solubility: Benzophenone-3, Table IV A", "format": "physicochemical", "text": "as §2, §3"}, "[9]": {"experiment": "organoleptic evaluation of tactile characteristics on the forearm, Table VII", "format": "in vivo, individuals", "details": "rating, 1 = Worst 5 = Best", "protocol": "The tactile characteristics of the novel benzoate esters of the invention were determined by applying the appropriate material, neat or as a dilution with another emollient ester, lanolin or […]. The properties were evaluated organoleptically after application to the interior surface of the forearm."}, "[10]": {"experiment": "viscosity readings of titanium dioxide dispersions, Table VI B", "format": "physicochemical", "details": "for Viscosity reading of dispersion: Brookfield LVT-D @ 12 RPM, TiO2 50%"}, "[11]": {"experiment": "refractive index of benzoate esters compared to precursors, Table V", "format": "physicochemical", "details": "25° C."}, "[12]": {"details": "23° C., 10 gms sunscreen in 100 gms mixture"}, "[13]": {"details": "30° C., 10 gms sunscreen in 100 gms mixture"}, "[14]": {"details": "30° C., 15 gms sunscreen in 100 gms mixture"}}, "data": [{"smiles": "CCCCCCC(CC=CCCCCCCCC(=O)OCC(COC(=O)CCCCCCCC=CCC(CCCCCC)OC(=O)c1ccccc1)OC(=O)CCCCCCCC=CCC(CCCCCC)OC(=O)c1ccccc1)OC(=O)c1ccccc1", "note": "(stereo not shown) [BCO, Benzoic acid ester of glyceryl tri-ricinoleate]", "values": [{"measurement": "Viscosity reading of dispersion", "setting": "[1]; pass 1", "result": "> 15,600 cps"}, {"measurement": "Viscosity reading of dispersion", "setting": "[1]; pass 2", "result": "> 15,600 cps"}, {"measurement": "Viscosity reading of dispersion", "setting": "[1]; pass 3", "result": "> 15,600 cps"}, {"measurement": "Viscosity reading of dispersion", "setting": "[1]; pass 4", "result": "> 15,600 cps"}, {"measurement": "Viscosity reading of dispersion", "setting": "[1]; pass 5", "result": "> 15,600 cps"}, {"measurement": "Viscosity reading of dispersion", "setting": "[1]; pass 6", "result": "> 15,600 cps"}, {"measurement": "miscibility with Parsol 1789", "setting": "[2]", "result": "miscible"}, {"measurement": "miscibility with benzophenone-3", "setting": "[2]", "result": "miscible"}, {"measurement": "Hagman reading (particle size)", "setting": "[3]; pass 1", "result": "≤ 30", "unit": "μm"}, {"measurement": "Hagman reading (particle size)", "setting": "[3]; pass 2", "result": "≤ 26", "unit": "μm"}, {"measurement": "Hagman reading (particle size)", "setting": "[3]; pass 3", "result": "≤ 20", "unit": "μm"}, {"measurement": "Hagman reading (particle size)", "setting": "[3]; pass 4", "result": "≤ 10", "unit": "μm"}, {"measurement": "Hagman reading (particle size)", "setting": "[3]; pass 5", "result": "≤ 10", "unit": "μm"}, {"measurement": "Hagman reading (particle size)", "setting": "[3]; pass 6", "result": "≤ 8", "unit": "μm"}, {"measurement": "S.G. (specific gravity)", "setting": "[4]", "result": 0.982}, {"measurement": "VISCOSITY", "setting": "[4]", "result": 937, "unit": "cps"}, {"measurement": "Hagman reading (particle size)", "setting": "[5]; pass 1", "result": "≤ 49", "unit": "μm"}, {"measurement": "Hagman reading (particle size)", "setting": "[5]; pass 2", "result": "≤ 45", "unit": "μm"}, {"measurement": "Hagman reading (particle size)", "setting": "[5]; pass 3", "result": "≤ 42", "unit": "μm"}, {"measurement": "Hagman reading (particle size)", "setting": "[5]; pass 4", "result": "≤ 40", "unit": "μm"}, {"measurement": "Hagman reading (particle size)", "setting": "[5]; pass 5", "result": "≤ 36", "unit": "μm"}, {"measurement": "Hagman reading (particle size)", "setting": "[5]; pass 6", "result": "≤ 33", "unit": "μm"}, {"measurement": "Sunscreen solubility (Parsol 1789)", "setting": "[6]; [12]", "result": "+"}, {"measurement": "Sunscreen solubility (Parsol 1789)", "setting": "[6]; 30° C., 5 gms sunscreen in 100 gms mixture", "result": "+"}, {"measurement": "Sunscreen solubility (Parsol 1789)", "setting": "[6]; [13]", "result": "+"}, {"measurement": "Sunscreen solubility (Parsol 1789)", "setting": "[6]; [14]", "result": "+"}, {"measurement": "Hagman reading (particle size)", "setting": "[7]; pass 1", "result": "≤ 39", "unit": "μm"}, {"measurement": "Hagman reading (particle size)", "setting": "[7]; pass 2", "result": "≤ 30", "unit": "μm"}, {"measurement": "Hagman reading (particle size)", "setting": "[7]; pass 3", "result": "≤ 26", "unit": "μm"}, {"measurement": "Hagman reading (particle size)", "setting": "[7]; pass 4", "result": "≤ 14", "unit": "μm"}, {"measurement": "Hagman reading (particle size)", "setting": "[7]; pass 5", "result": "≤ 12", "unit": "μm"}, {"measurement": "Hagman reading (particle size)", "setting": "[7]; pass 6", "result": "≤ 10", "unit": "μm"}, {"measurement": "Sunscreen solubility (Benzophenone-3)", "setting": "[8]; [12]", "result": "+"}, {"measurement": "Sunscreen solubility (Benzophenone-3)", "setting": "[8]; 23° C., 15 gms sunscreen in 100 gms mixture", "result": "+"}, {"measurement": "Sunscreen solubility (Benzophenone-3)", "setting": "[8]; [13]", "result": "+"}, {"measurement": "Sunscreen solubility (Benzophenone-3)", "setting": "[8]; [14]", "result": "+"}, {"measurement": "GREASINESS/OILINESS", "setting": "[9]", "result": 4}, {"measurement": "OVERALL TACTILITY", "setting": "[9]", "result": 3}, {"measurement": "SPREADABILITY", "setting": "[9]", "result": 4}, {"measurement": "TACK", "setting": "[9]", "result": 2}, {"measurement": "viscosity of TiO2 dispersions (in words)", "setting": "[10]", "result": "much lower viscosity"}, {"measurement": "Viscosity reading of dispersion", "setting": "[10]; pass 1", "result": 6552, "unit": "cps"}, {"measurement": "Viscosity reading of dispersion", "setting": "[10]; pass 2", "result": 7176, "unit": "cps"}, {"measurement": "Viscosity reading of dispersion", "setting": "[10]; pass 3", "result": 7800, "unit": "cps"}, {"measurement": "Viscosity reading of dispersion", "setting": "[10]; pass 4", "result": 7332, "unit": "cps"}, {"measurement": "Viscosity reading of dispersion", "setting": "[10]; pass 5", "result": 7176, "unit": "cps"}, {"measurement": "Viscosity reading of dispersion", "setting": "[10]; pass 6", "result": 6786, "unit": "cps"}]}, {"smiles": "CCCCCCCCCCCCCCCCOC(=O)CCCCCCC/C=C\\C[C@H](O)CCCCCC", "note": "[CR, Cetyl Ricinoleate, reference compound]", "values": [{"measurement": "Viscosity reading of dispersion", "setting": "[1]; pass 1", "result": "Out of instrument range"}, {"measurement": "Viscosity reading of dispersion", "setting": "[1]; pass 2", "result": "Out of instrument range"}, {"measurement": "Viscosity reading of dispersion", "setting": "[1]; pass 3", "result": "Out of instrument range"}, {"measurement": "Viscosity reading of dispersion", "setting": "[1]; pass 4", "result": "Out of instrument range"}, {"measurement": "Viscosity reading of dispersion", "setting": "[1]; pass 5", "result": "Out of instrument range"}, {"measurement": "Viscosity reading of dispersion", "setting": "[1]; pass 6", "result": "Out of instrument range"}, {"measurement": "Hagman reading (particle size)", "setting": "[3]; pass 1", "result": "≤ 93", "unit": "μm"}, {"measurement": "Hagman reading (particle size)", "setting": "[3]; pass 2", "result": "≤ 80", "unit": "μm"}, {"measurement": "Hagman reading (particle size)", "setting": "[3]; pass 3", "result": "≤ 80", "unit": "μm"}, {"measurement": "Hagman reading (particle size)", "setting": "[3]; pass 4", "result": "≤ 76", "unit": "μm"}, {"measurement": "Hagman reading (particle size)", "setting": "[3]; pass 5", "result": "≤ 50", "unit": "μm"}, {"measurement": "Hagman reading (particle size)", "setting": "[3]; pass 6", "result": "≤ 43", "unit": "μm"}, {"measurement": "Color", "setting": "[4]", "result": "light yellow"}, {"measurement": "S.G. (specific gravity)", "setting": "[4]", "result": 0.874}, {"measurement": "VISCOSITY", "setting": "[4]", "result": 65, "unit": "cps"}, {"measurement": "REFRACTIVE INDEX", "setting": "[4]; Table II", "result": 1.4580}, {"measurement": "Hagman reading (particle size)", "setting": "[5]; pass 1", "result": "≤ 49", "unit": "μm"}, {"measurement": "Hagman reading (particle size)", "setting": "[5]; pass 2", "result": "≤ 48", "unit": "μm"}, {"measurement": "Hagman reading (particle size)", "setting": "[5]; pass 3", "result": "≤ 40", "unit": "μm"}, {"measurement": "Hagman reading (particle size)", "setting": "[5]; pass 4", "result": "≤ 38", "unit": "μm"}, {"measurement": "Hagman reading (particle size)", "setting": "[5]; pass 5", "result": "≤ 33", "unit": "μm"}, {"measurement": "Hagman reading (particle size)", "setting": "[5]; pass 6", "result": "≤ 30", "unit": "μm"}, {"measurement": "Sunscreen solubility (Parsol 1789)", "setting": "[6]; [12]", "result": "+"}, {"measurement": "Sunscreen solubility (Parsol 1789)", "setting": "[6]; [13]", "result": "+"}, {"measurement": "Sunscreen solubility (Parsol 1789)", "setting": "[6]; [14]", "result": "+"}, {"measurement": "Refractive Index, Typical", "setting": "[11]", "result": 1.4580}, {"measurement": "Hagman reading (particle size)", "setting": "[7]; pass 1", "result": "≤ 39", "unit": "μm"}, {"measurement": "Hagman reading (particle size)", "setting": "[7]; pass 2", "result": "≤ 36", "unit": "μm"}, {"measurement": "Hagman reading (particle size)", "setting": "[7]; pass 3", "result": "≤ 30", "unit": "μm"}, {"measurement": "Hagman reading (particle size)", "setting": "[7]; pass 4", "result": "≤ 26", "unit": "μm"}, {"measurement": "Hagman reading (particle size)", "setting": "[7]; pass 5", "result": "≤ 18", "unit": "μm"}, {"measurement": "Hagman reading (particle size)", "setting": "[7]; pass 6", "result": "≤ 14", "unit": "μm"}, {"measurement": "Sunscreen solubility (Benzophenone-3)", "setting": "[8]; [12]", "result": "+"}, {"measurement": "Sunscreen solubility (Benzophenone-3)", "setting": "[8]; [13]", "result": "+"}, {"measurement": "Sunscreen solubility (Benzophenone-3)", "setting": "[8]; [14]", "result": "+"}, {"measurement": "Viscosity reading of dispersion", "setting": "[10]; pass 1", "result": "Out of instrument range"}, {"measurement": "Viscosity reading of dispersion", "setting": "[10]; pass 2", "result": "Out of instrument range"}, {"measurement": "Viscosity reading of dispersion", "setting": "[10]; pass 3", "result": "Out of instrument range"}, {"measurement": "Viscosity reading of dispersion", "setting": "[10]; pass 4", "result": "Out of instrument range"}, {"measurement": "Viscosity reading of dispersion", "setting": "[10]; pass 5", "result": "Out of instrument range"}, {"measurement": "Viscosity reading of dispersion", "setting": "[10]; pass 6", "result": "Out of instrument range"}]}]}
